Reference: PubChem BioAssay (NCI)
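Following 48 hours of exposure in 96-well plates, responses at five concentrations were used to interpolate endpoints linearly. GI50: concentration for 50% inhibition of growth. TGI is the concentration that stops growth completely.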

Each compound was assayed on 786-0 renal (assay: NCI anticancer screen, dose series, 48 h).
Compound `COc1nc2ccccc2cc1-c1nc2c(cnn2-c2ccc(Br)cc2)c(=O)[nH]1` has a GI50 of 40.3 nM and a TGI of 8600 nM.
`CCN(CC)C(=S)N/N=C(/C)c1cccc(/C(C)=N\NC(=S)N(CC)CC)n1` was tested, and the TGI was 11500 nM.
For `COc1cc(-c2ccc3c(c2)NC(=O)/C3=C\c2ccc[nH]2)ccc1O`, the GI50 was 38.5 nM and the TGI was > 21100 nM.
`O=C(NC1=CC(=O)c2ccccc2C1=O)c1ccccc1` showed a GI50 of 3010 nM and a TGI of 17200 nM.

What follows are compounds tested on A498 renal (assay: NCI anticancer screen, dose series, 48 h).
With `COc1nc2ccccc2cc1-c1nc2c(cnn2-c2ccc(Br)cc2)c(=O)[nH]1` the GI50 was 13.9 nM and the TGI was 521 nM.
Compound `CCN(CC)C(=S)N/N=C(/C)c1cccc(/C(C)=N\NC(=S)N(CC)CC)n1` has a TGI of 4160 nM.
`COc1cc(-c2ccc3c(c2)NC(=O)/C3=C\c2ccc[nH]2)ccc1O` gave a GI50 of 2090 nM and a TGI of 39200 nM.
Work on `O=C(NC1=CC(=O)c2ccccc2C1=O)c1ccccc1` yielded a GI50 of 4460 nM and a TGI of 17500 nM.

The compounds below were run on A549 NSCLC (assay: NCI anticancer screen, dose series, 48 h).
In the case of `COc1nc2ccccc2cc1-c1nc2c(cnn2-c2ccc(Br)cc2)c(=O)[nH]1`, the GI50 is reported as 83.7 nM and the TGI is reported as > 50000 nM.
`CCN(CC)C(=S)N/N=C(/C)c1cccc(/C(C)=N\NC(=S)N(CC)CC)n1` showed a TGI of 11300 nM.
With `COc1cc(-c2ccc3c(c2)NC(=O)/C3=C\c2ccc[nH]2)ccc1O` the GI50 was 37.4 nM and the TGI was > 50000 nM.
In the case of `O=C(NC1=CC(=O)c2ccccc2C1=O)c1ccccc1`, the GI50 is reported as 2910 nM and the TGI is reported as 16400 nM.

These compounds were tested on ACHN renal (assay: NCI anticancer screen, dose series, 48 h).
With `COc1nc2ccccc2cc1-c1nc2c(cnn2-c2ccc(Br)cc2)c(=O)[nH]1` the GI50 was 34.5 nM and the TGI was > 50000 nM.
Compound `CCN(CC)C(=S)N/N=C(/C)c1cccc(/C(C)=N\NC(=S)N(CC)CC)n1` has a TGI of 4610 nM.
In the case of `COc1cc(-c2ccc3c(c2)NC(=O)/C3=C\c2ccc[nH]2)ccc1O`, the GI50 is reported as 41.7 nM and the TGI is reported as > 50000 nM.
Work on `O=C(NC1=CC(=O)c2ccccc2C1=O)c1ccccc1` yielded a GI50 of 1010 nM and a TGI of 2270 nM.

These compounds were tested on BT-549 breast (assay: NCI anticancer screen, dose series, 48 h).
With `COc1nc2ccccc2cc1-c1nc2c(cnn2-c2ccc(Br)cc2)c(=O)[nH]1` the GI50 was 156 nM and the TGI was > 25100 nM.
In the case of `COc1cc(-c2ccc3c(c2)NC(=O)/C3=C\c2ccc[nH]2)ccc1O`, the GI50 is reported as 96.8 nM and the TGI is reported as > 50000 nM.
`O=C(NC1=CC(=O)c2ccccc2C1=O)c1ccccc1` showed a GI50 of 706 nM and a TGI of 14900 nM.

What follows are compounds tested on CAKI-1 renal (assay: NCI anticancer screen, dose series, 48 h).
With `COc1nc2ccccc2cc1-c1nc2c(cnn2-c2ccc(Br)cc2)c(=O)[nH]1` the GI50 was 19.6 nM and the TGI was > 50000 nM.
With `CCN(CC)C(=S)N/N=C(/C)c1cccc(/C(C)=N\NC(=S)N(CC)CC)n1` the TGI was 5290 nM.
In the case of `COc1cc(-c2ccc3c(c2)NC(=O)/C3=C\c2ccc[nH]2)ccc1O`, the GI50 is reported as 255 nM and the TGI is reported as > 12900 nM.
Compound `O=C(NC1=CC(=O)c2ccccc2C1=O)c1ccccc1` has a GI50 of 1740 nM and a TGI of 3540 nM.

What follows are compounds tested on CCRF-CEM leukemia (assay: NCI anticancer screen, dose series, 48 h).
`COc1nc2ccccc2cc1-c1nc2c(cnn2-c2ccc(Br)cc2)c(=O)[nH]1` was tested, and the GI50 was 23.8 nM and the TGI was > 31800 nM.
In the case of `CCN(CC)C(=S)N/N=C(/C)c1cccc(/C(C)=N\NC(=S)N(CC)CC)n1`, the TGI is reported as > 100000 nM.
In the case of `COc1cc(-c2ccc3c(c2)NC(=O)/C3=C\c2ccc[nH]2)ccc1O`, the GI50 is reported as 17.6 nM and the TGI is reported as > 16700 nM.
`O=C(NC1=CC(=O)c2ccccc2C1=O)c1ccccc1` showed a GI50 of 872 nM.

What follows are compounds tested on COLO 205 colon (assay: NCI anticancer screen, dose series, 48 h).
For `COc1nc2ccccc2cc1-c1nc2c(cnn2-c2ccc(Br)cc2)c(=O)[nH]1`, the GI50 was 54.5 nM.
Compound `CCN(CC)C(=S)N/N=C(/C)c1cccc(/C(C)=N\NC(=S)N(CC)CC)n1` has a TGI of 11300 nM.
With `COc1cc(-c2ccc3c(c2)NC(=O)/C3=C\c2ccc[nH]2)ccc1O` the GI50 was 467 nM and the TGI was > 50000 nM.
Work on `O=C(NC1=CC(=O)c2ccccc2C1=O)c1ccccc1` yielded a GI50 of 1800 nM and a TGI of 3310 nM.

Each compound was assayed on DU-145 prostate (assay: NCI anticancer screen, dose series, 48 h).
With `COc1nc2ccccc2cc1-c1nc2c(cnn2-c2ccc(Br)cc2)c(=O)[nH]1` the GI50 was 34.4 nM and the TGI was 13800 nM.
In the case of `CCN(CC)C(=S)N/N=C(/C)c1cccc(/C(C)=N\NC(=S)N(CC)CC)n1`, the TGI is reported as 4830 nM.
For `COc1cc(-c2ccc3c(c2)NC(=O)/C3=C\c2ccc[nH]2)ccc1O`, the GI50 was 19.3 nM and the TGI was > 30200 nM.
`O=C(NC1=CC(=O)c2ccccc2C1=O)c1ccccc1` showed a GI50 of 1710 nM and a TGI of 3460 nM.

What follows are compounds tested on EKVX NSCLC (assay: NCI anticancer screen, dose series, 48 h).
With `COc1nc2ccccc2cc1-c1nc2c(cnn2-c2ccc(Br)cc2)c(=O)[nH]1` the GI50 was 81.7 nM and the TGI was > 50000 nM.
With `CCN(CC)C(=S)N/N=C(/C)c1cccc(/C(C)=N\NC(=S)N(CC)CC)n1` the TGI was 12500 nM.
For `COc1cc(-c2ccc3c(c2)NC(=O)/C3=C\c2ccc[nH]2)ccc1O`, the GI50 was 144 nM and the TGI was > 50000 nM.
In the case of `O=C(NC1=CC(=O)c2ccccc2C1=O)c1ccccc1`, the GI50 is reported as 729 nM and the TGI is reported as 7630 nM.

What follows are compounds tested on HCC-2998 colon (assay: NCI anticancer screen, dose series, 48 h).
For `COc1nc2ccccc2cc1-c1nc2c(cnn2-c2ccc(Br)cc2)c(=O)[nH]1`, the GI50 was 587 nM and the TGI was > 50000 nM.
Compound `CCN(CC)C(=S)N/N=C(/C)c1cccc(/C(C)=N\NC(=S)N(CC)CC)n1` has a TGI of 23800 nM.
With `COc1cc(-c2ccc3c(c2)NC(=O)/C3=C\c2ccc[nH]2)ccc1O` the GI50 was 98.1 nM and the TGI was 1840 nM.
`O=C(NC1=CC(=O)c2ccccc2C1=O)c1ccccc1` showed a GI50 of 1270 nM and a TGI of 14300 nM.

Each compound was assayed on HCT-116 colon (assay: NCI anticancer screen, dose series, 48 h).
For `COc1nc2ccccc2cc1-c1nc2c(cnn2-c2ccc(Br)cc2)c(=O)[nH]1`, the GI50 was 19.6 nM and the TGI was > 50000 nM.
In the case of `CCN(CC)C(=S)N/N=C(/C)c1cccc(/C(C)=N\NC(=S)N(CC)CC)n1`, the TGI is reported as 11400 nM.
In the case of `COc1cc(-c2ccc3c(c2)NC(=O)/C3=C\c2ccc[nH]2)ccc1O`, the GI50 is reported as 22.8 nM and the TGI is reported as > 50000 nM.
Work on `O=C(NC1=CC(=O)c2ccccc2C1=O)c1ccccc1` yielded a GI50 of 409 nM and a TGI of 1600 nM.

These compounds were tested on HCT-15 colon (assay: NCI anticancer screen, dose series, 48 h).
`COc1nc2ccccc2cc1-c1nc2c(cnn2-c2ccc(Br)cc2)c(=O)[nH]1` was tested, and the GI50 was 26.1 nM and the TGI was > 50000 nM.
In the case of `CCN(CC)C(=S)N/N=C(/C)c1cccc(/C(C)=N\NC(=S)N(CC)CC)n1`, the TGI is reported as 17100 nM.
For `COc1cc(-c2ccc3c(c2)NC(=O)/C3=C\c2ccc[nH]2)ccc1O`, the GI50 was 22.8 nM and the TGI was > 50000 nM.
`O=C(NC1=CC(=O)c2ccccc2C1=O)c1ccccc1` gave a GI50 of 549 nM and a TGI of 5600 nM.

Each compound was assayed on HL-60(TB) leukemia (assay: NCI anticancer screen, dose series, 48 h).
For `COc1nc2ccccc2cc1-c1nc2c(cnn2-c2ccc(Br)cc2)c(=O)[nH]1`, the GI50 was 15.8 nM and the TGI was 81.5 nM.
Compound `CCN(CC)C(=S)N/N=C(/C)c1cccc(/C(C)=N\NC(=S)N(CC)CC)n1` has a TGI of 3770 nM.
With `COc1cc(-c2ccc3c(c2)NC(=O)/C3=C\c2ccc[nH]2)ccc1O` the GI50 was 15.5 nM.
Work on `O=C(NC1=CC(=O)c2ccccc2C1=O)c1ccccc1` yielded a GI50 of 639 nM and a TGI of 2530 nM.

What follows are compounds tested on HOP-62 NSCLC (assay: NCI anticancer screen, dose series, 48 h).
With `COc1nc2ccccc2cc1-c1nc2c(cnn2-c2ccc(Br)cc2)c(=O)[nH]1` the GI50 was 36.3 nM and the TGI was 7390 nM.
With `CCN(CC)C(=S)N/N=C(/C)c1cccc(/C(C)=N\NC(=S)N(CC)CC)n1` the TGI was 6760 nM.
For `COc1cc(-c2ccc3c(c2)NC(=O)/C3=C\c2ccc[nH]2)ccc1O`, the GI50 was 56.3 nM and the TGI was > 50000 nM.
